Reference: article PMC8269059, “Glycyrrhizin Derivatives Suppress Cancer Chemoresistance by Inhibiting Progesterone Receptor Membrane Component 1” (Cancers, 2021)
pIC50, pKd: −log10 of the molar value. Entries after “also recorded” stand apart in the source; their conditions may differ. Read-outs that look alike come from different tables or passages of the source.

Key:
heme-dimerized PGRMC1 = biological target: T1, heme-dimerized PGRMC1 (Homo sapiens, UniProt O00264); experiment: ITC binding to heme-dimerized PGRMC1; details: ITC; for KD / pKd: 298 K, 50 mM phosphate pH 7.0, heme-dimerized PGRMC1 (WT); for TΔS / ΔG / ΔH: heme-dimerized PGRMC1 (WT)
T1 construct: human PGRMC1 intracellular domain residues 43-195; GST (N, cleaved yes); made in house; host or cells: E. coli BL21 (DE3)

HCT116 cells = experiment: Chemosensitivity MTT assay in HCT116 cells; type: cell-based, human; details: for Anti-proliferative / anti-cancer effect with anti-cancer agents: HCT116, MTT, with erlotinib or CDDP, compared with GL; for pIC50: Homo sapiens, HCT-116, HCT116 cell viability, MTT
HCT116 cells xenograft = experiment: HCT116 xenograft in nude mice; type: in vivo, mouse; details: i.p. twice a week, 22 days, CDDP 2 mg/kg, GL 400 mg/kg, vs control
Protocol: All protocols for animal experiments in this study were approved by the Experimental Animal Committee of Keio University School of Medicine (approval number: 08024-(13), approval date: 30 September 2020). HCT116 cells (2 × 10^6 cells/mouse) with half of Matrigel (Corning, NY, USA) were transplanted subcutaneously into the flank of 7-week-old nude mice. Four days after the transplantation, tumor size was measured in three dimensions with calipers and grouped by tumor volume. CDDP (2 mg/kg), GL (400 mg/kg), or GlucoGL (100 mg/kg) were administered to the mice intraperitoneally, and the tumor volume was measured twice a week for 22 days.

[1] = tested on: GFP-fused PGRMC1 protein partially purified from granulosa cells; details: competitive binding with labeled-progesterone; cited from earlier work
apo-PGRMC1 = biological target: T2, apo-PGRMC1 (Homo sapiens, UniProt O00264); experiment: ITC binding to apo-PGRMC1; details: apo-monomer form
T2 construct: human PGRMC1 intracellular domain residues 43-195; GST (N, cleaved yes); made in house; host or cells: E. coli BL21 (DE3)
Source text: Bacterial expression vectors pGEX-PGRMC1 (human PGRMC1 intracellular domain residues 43-195) and mammalian FLAG-tagged expression vector pCMV-FLAG-PGRMC1 (full-length) were constructed as described previously. Expression vectors for PGRMC1 point mutants were generated by site-directed mutagenesis with PCR. For construction of HMGB1 expression vector, human HMGB1 full-length cDNA was cloned from cDNA library of HCT116 cells using the primers (Forward: 5′-[…]-3′, Reverse: 5′-[…]-[…]-3′), digested with Bam HI and Sal I, and then ligated into pGEX6P1.
Expression vectors (pGEX-PGRMC1 (residues 43-195) or pGEX-HMGB1) were transformed into BL21 (DE3) competent E. coli cells, and the cells incubated in LB medium with ampicillin at 37 °C until the OD600 reached 0.8. Protein expression was induced by adding 1 mM isopropyl-β-thiogalactopyranoside (IPTG) and incubating at 37 °C for 4 h. […]
ITC experiments were performed at 298 K with ITC-Buffer (50 mM phosphate [pH 7.0]) using a MicroCal iTC200 (Malvern Panalytical, Malvern, UK). […] Binding isotherms were analyzed using SEDPHAT [35]. The binding of AG205 to apo- or heme-PGRMC1 (100 μM) was analyzed using a concentration of 3 mM containing 1% DMSO. […]

[2] = with CDDP (10 µM), read-out: IC50 CDDP
[3] = with erlotinib (20 µM), read-out: IC50 Erlotinib

T1 sequence (O00264 43-195): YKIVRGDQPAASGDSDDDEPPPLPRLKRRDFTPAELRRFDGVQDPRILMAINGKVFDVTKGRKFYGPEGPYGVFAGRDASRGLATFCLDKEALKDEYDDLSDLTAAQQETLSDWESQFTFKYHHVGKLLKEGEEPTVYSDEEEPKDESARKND
T2 sequence (O00264 43-195): as above

Row | Structure (SMILES) | KD (heme-dimerized PGRMC1) | pKd (heme-dimerized PGRMC1) | TΔS (heme-dimerized PGRMC1) [K·kcal/mol] | ΔG (heme-dimerized PGRMC1) [kcal/mol] | ΔH (heme-dimerized PGRMC1) [kcal/mol] | pIC50 (HCT116 cells; [2]) | pIC50 (HCT116 cells; [3]) | Anti-proliferative / anti-cancer effect with anti-cancer agents (HCT116 cells) | also measured
1 | CC1(C)[C@@H](OC(=O)CCC(=O)O)CC[C@]2(C)[C@H]3C(=O)C=C4[C@@H]5C[C@@](C)(C(=O)O)CC[C@]5(C)CC[C@@]4(C)[C@]3(C)CC[C@@H]12 [Carbenoxolone] | No Binding | – | – | – | – | – | – | weaker anti-proliferative effects | –
2 | [NH2][Pt]([NH2])([Cl])[Cl] [CDDP, cisplatin] | – | – | – | – | – | – | – | – | Tumor volume, administered individually (HCT116 cells xenograft): no differences in tumor volume
3 | CC1(C)[C@@H](O)CC[C@]2(C)[C@H]3C(=O)C=C4[C@@H]5C[C@@](C)(C(=O)O)CC[C@]5(C)CC[C@@]4(C)[C@]3(C)CC[C@@H]12 [Glycyrrhetinic acid (GA), Glycyrrhetinic acid] | Weak Binding | – | – | – | – | – | – | – | KD (heme-dimerized PGRMC1; listed as GA): did not detect significant binding
4 | CC1(C(=O)O)CCC2(C)CCC3(C)C(=CC(=O)C4C5(C)CCC(OC6OC(C(=O)O)C(O)C(O)C6OC6OCC(O)C(O)C6O)C(C)(C)C5CCC43C)C2C1 (centres unmarked) [Araboglycyrrhizin] | – | 5.07 | 5.90 | -6.93 | -1.03 | 4.58 | 4.45 | potent anti-cancer effects | –
5 | CC1(C(=O)O)CCC2(C)CCC3(C)C(=CC(=O)C4C5(C)CCC(OC6OC(C(=O)O)C(O)C(O)C6OC6OCC(O)(CO)C6O)C(C)(C)C5CCC43C)C2C1 (centres unmarked) [Apioglycyrrhizin] | – | 5.31 | 6.18 | -7.26 | -1.08 | 4.45 | 4.20 | potent anti-cancer effects | –
6 | Cc1ccc2c(c1)[C@H]1CN(C)CC[C@H]1N2C(=O)CSc1nnnn1-c1ccc(Cl)cc1 [AG205] | no binding activity; also recorded: did not observe AG205 binding | – | – | – | – | – | – | – | Binding to apo-PGRMC1 (apo-PGRMC1): no binding activity; also recorded: did not observe AG205 binding

More lines, main results first:

Row | KD (heme-dimerized PGRMC1) | pKd (heme-dimerized PGRMC1) | TΔS (heme-dimerized PGRMC1) [K·kcal/mol] | ΔG (heme-dimerized PGRMC1) [kcal/mol] | ΔH (heme-dimerized PGRMC1) [kcal/mol] | pIC50 (HCT116 cells; [2]) | pIC50 (HCT116 cells; [3]) | Structure (SMILES) | Anti-proliferative / anti-cancer effect with anti-cancer agents (HCT116 cells) | also measured
7 | No Binding | – | – | – | – | – | – | CC12CCC3(C)C(=CC(=O)C4C5(C)CCC(OC6OC(C(=O)O)C(O)C(O)C6OC6OC(C(=O)O)C(O)C(O)C6O)C(C)(C)C5CCC43C)C1CC(C)(C(=O)O)C(O)C2 (centres unmarked) [Macedonoside A] | weaker anti-proliferative effects | –
8 | No Binding | – | – | – | – | – | – | CC1(C(=O)O)CCC2(C)CCC3(C)C(=CC(=O)C4C5(C)CCC(OC6OC(C(=O)O)C(O)C(O)C6OC6OC(C(=O)O)C(O)C(O)C6O)C(C)(C)C5CCC43C)C2C1 (centres unmarked) [Licorice-saponin H2] | weaker anti-proliferative effects | –
9 | – | 5.97 | 6.08 | -8.15 | -2.07 | 4.76 | 4.72 | CC1OC(OC2C(OC3C(OC4CCC5(C)C(CCC6(C)C5C(=O)C=C5C7CC(C)(C(=O)O)CCC7(C)CCC56C)C4(C)C)OC(C(=O)O)C(O)C3O)OC(CO)C(O)C2O)C(O)C(O)C1O (centres unmarked) [Rhaoglucoglycyrrhizin] | potent anti-cancer effects | –
10 | – | 5.02 | 6.23 | -6.85 | -0.62 | 4.38 | 4.30 | CC1(C(=O)O)CCC2(C)CCC3(C)C(=CC(=O)C4C5(C)CCC(OC6OC(C(=O)O)C(O)C(O)C6O)C(C)(C)C5CCC43C)C2C1 (centres unmarked) [Glycyrrhetinic acid-3-O-mono-glucuronide] | – | –
11 | – | 3.09 | – | -4.22 | -23.26 | – | – | CC(=O)[C@H]1CC[C@H]2[C@@H]3CCC4=CC(=O)CC[C@]4(C)[C@H]3CC[C@]12C [Progesterone] | – | pKd [1]: 7.46
12 | – | 3.89 | 4.08 | -5.31 | -1.23 | – | – | CC1(C(=O)O)CCC2(C)CCC3(C)C(=CC(=O)C4C5(C)CCC(OC6OC(C(=O)O)C(O)C(O)C6OC6OC(C(=O)O)C(O)C(O)C6O)C(C)(CO)C5CCC43C)C2C1 (centres unmarked) [Licorice-saponin G2] | weaker anti-proliferative effects | –
